[1] = in gamma-valerolactone, 283.15 K
[2] = in gamma-valerolactone, 293.15 K
[3] = in gamma-valerolactone, 303.15 K
[4] = in gamma-valerolactone, 313.15 K
[5] = in gamma-valerolactone, 323.15 K
[6] = in gamma-valerolactone, 333.15 K

Molecule `C[C@H](CCC(=O)O)[C@H]1CC[C@H]2[C@@H]3CC[C@@H]4C[C@H](O)CC[C@]4(C)[C@H]3C[C@H](O)[C@]12C` has a solubility (mole fraction) (in 2-pentanone, 283.15 K) of 0.000911, a solubility (mole fraction) (in 2-pentanone, 293.15 K) of 0.00145 and a solubility (mole fraction) (in 2-pentanone, 303.15 K) of 0.00198. It also gave a solubility (mole fraction) (in 2-pentanone, 313.15 K) of 0.00286, a solubility (mole fraction) (in 2-pentanone, 323.15 K) of 0.00378 and a solubility (mole fraction) (in 2-pentanone, 333.15 K) of 0.0049. For the same molecule, the solubility (mole fraction) (in cyclohexanone, 283.15 K) was 0.00147, the solubility (mole fraction) (in cyclohexanone, 293.15 K) was 0.00214 and the solubility (mole fraction) (in cyclohexanone, 303.15 K) was 0.00302. For the same molecule, the solubility (mole fraction) (in cyclohexanone, 313.15 K) was 0.00416, the solubility (mole fraction) (in cyclohexanone, 323.15 K) was 0.00567 and the solubility (mole fraction) (in cyclohexanone, 333.15 K) was 0.00744. For the same molecule, the solubility (mole fraction) (in ethyl acetate, 283.15 K) was 0.000187, the solubility (mole fraction) (in ethyl acetate, 293.15 K) was 0.000304 and the solubility (mole fraction) (in ethyl acetate, 303.15 K) was 0.000448. It also gave a solubility (mole fraction) (in ethyl acetate, 313.15 K) of 0.000771, a solubility (mole fraction) (in ethyl acetate, 323.15 K) of 0.0011 and a solubility (mole fraction) (in ethyl acetate, 333.15 K) of 0.00147. For the same molecule, the solubility (mole fraction) (in furfural, 283.15 K) was 0.000227, the solubility (mole fraction) (in furfural, 293.15 K) was 0.000293 and the solubility (mole fraction) (in furfural, 303.15 K) was 0.000478. It also gave a solubility (mole fraction) (in furfural, 313.15 K) of 0.000599, a solubility (mole fraction) (in furfural, 323.15 K) of 0.000913 and a solubility (mole fraction) (in furfural, 333.15 K) of 0.0014. The solubility (mole fraction) [1] was 0.000904, the solubility (mole fraction) [2] was 0.00147 and the solubility (mole fraction) [3] was 0.00217. It also gave a solubility (mole fraction) [4] of 0.00304, a solubility (mole fraction) [5] of 0.00509 and a solubility (mole fraction) [6] of 0.00757. It also gave a solubility (mole fraction) (in methyl acetate, 283.15 K) of 0.000224, a solubility (mole fraction) (in methyl acetate, 293.15 K) of 0.000382 and a solubility (mole fraction) (in methyl acetate, 303.15 K) of 0.00071. For the same molecule, the solubility (mole fraction) (in methyl acetate, 313.15 K) was 0.00107, the solubility (mole fraction) (in methyl acetate, 323.15 K) was 0.0016 and the solubility (mole fraction) (in n-butanol, 283.15 K) was 0.00134. For the same molecule, the solubility (mole fraction) (in n-butanol, 293.15 K) was 0.00159, the solubility (mole fraction) (in n-butanol, 303.15 K) was 0.00189 and the solubility (mole fraction) (in n-butanol, 313.15 K) was 0.00246. For the same molecule, the solubility (mole fraction) (in n-butanol, 323.15 K) was 0.00275, the solubility (mole fraction) (in n-butanol, 333.15 K) was 0.00315 and the solubility (mole fraction) (in n-butyl acetate, 283.15 K) was 0.000222. For the same molecule, the solubility (mole fraction) (in n-butyl acetate, 293.15 K) was 0.000275, the solubility (mole fraction) (in n-butyl acetate, 303.15 K) was 0.000415 and the solubility (mole fraction) (in n-butyl acetate, 313.15 K) was 0.000609. It also gave a solubility (mole fraction) (in n-butyl acetate, 323.15 K) of 0.000875, a solubility (mole fraction) (in n-butyl acetate, 333.15 K) of 0.00127 and a solubility (mole fraction) (in n-hexanol, 283.15 K) of 0.00773. It also gave a solubility (mole fraction) (in n-hexanol, 293.15 K) of 0.00902, a solubility (mole fraction) (in n-hexanol, 303.15 K) of 0.0102 and a solubility (mole fraction) (in n-hexanol, 313.15 K) of 0.0125. It also gave a solubility (mole fraction) (in n-hexanol, 323.15 K) of 0.0153, a solubility (mole fraction) (in n-hexanol, 333.15 K) of 0.0174 and a solubility (mole fraction) (in n-octanol, 283.15 K) of 0.00898. The solubility (mole fraction) (in n-octanol, 293.15 K) was 0.0116, the solubility (mole fraction) (in n-octanol, 303.15 K) was 0.0135 and the solubility (mole fraction) (in n-octanol, 313.15 K) was 0.016. The solubility (mole fraction) (in n-octanol, 323.15 K) was 0.0192 and the solubility (mole fraction) (in n-octanol, 333.15 K) was 0.0232.
For `C[C@H](CCC(=O)O)[C@H]1CC[C@H]2[C@@H]3[C@H](O)C[C@@H]4C[C@H](O)CC[C@]4(C)[C@H]3C[C@H](O)[C@]12C`, the solubility (mole fraction) (in 2-pentanone, 283.15 K) was 0.00141, the solubility (mole fraction) (in 2-pentanone, 293.15 K) was 0.00164 and the solubility (mole fraction) (in 2-pentanone, 303.15 K) was 0.00206. The solubility (mole fraction) (in 2-pentanone, 313.15 K) was 0.00247, the solubility (mole fraction) (in 2-pentanone, 323.15 K) was 0.00299 and the solubility (mole fraction) (in 2-pentanone, 333.15 K) was 0.00345. The solubility (mole fraction) (in cyclohexanone, 283.15 K) was 0.00753, the solubility (mole fraction) (in cyclohexanone, 293.15 K) was 0.00842 and the solubility (mole fraction) (in cyclohexanone, 303.15 K) was 0.00952. The solubility (mole fraction) (in cyclohexanone, 313.15 K) was 0.0106, the solubility (mole fraction) (in cyclohexanone, 323.15 K) was 0.012 and the solubility (mole fraction) (in cyclohexanone, 333.15 K) was 0.0137. It also gave a solubility (mole fraction) (in ethyl acetate, 283.15 K) of 0.000154, a solubility (mole fraction) (in ethyl acetate, 293.15 K) of 0.000242 and a solubility (mole fraction) (in ethyl acetate, 303.15 K) of 0.000392. The solubility (mole fraction) (in ethyl acetate, 313.15 K) was 0.000536, the solubility (mole fraction) (in ethyl acetate, 323.15 K) was 0.000713 and the solubility (mole fraction) (in ethyl acetate, 333.15 K) was 0.000942. For the same molecule, the solubility (mole fraction) (in furfural, 283.15 K) was 3.55e-05, the solubility (mole fraction) (in furfural, 293.15 K) was 7.5e-05 and the solubility (mole fraction) (in furfural, 303.15 K) was 0.000127. It also gave a solubility (mole fraction) (in furfural, 313.15 K) of 0.000197, a solubility (mole fraction) (in furfural, 323.15 K) of 0.000349 and a solubility (mole fraction) (in furfural, 333.15 K) of 0.000563. The solubility (mole fraction) [1] was 0.000822, the solubility (mole fraction) [2] was 0.00154 and the solubility (mole fraction) [3] was 0.00258. For the same molecule, the solubility (mole fraction) [4] was 0.00412, the solubility (mole fraction) [5] was 0.00604 and the solubility (mole fraction) [6] was 0.00978. For the same molecule, the solubility (mole fraction) (in methyl acetate, 283.15 K) was 7.59e-05, the solubility (mole fraction) (in methyl acetate, 293.15 K) was 0.000128 and the solubility (mole fraction) (in methyl acetate, 303.15 K) was 0.000232. It also gave a solubility (mole fraction) (in methyl acetate, 313.15 K) of 0.000489, a solubility (mole fraction) (in methyl acetate, 323.15 K) of 0.000811 and a solubility (mole fraction) (in n-butanol, 283.15 K) of 0.00219. It also gave a solubility (mole fraction) (in n-butanol, 293.15 K) of 0.00245, a solubility (mole fraction) (in n-butanol, 303.15 K) of 0.0027 and a solubility (mole fraction) (in n-butanol, 313.15 K) of 0.00296. The solubility (mole fraction) (in n-butanol, 323.15 K) was 0.00337, the solubility (mole fraction) (in n-butanol, 333.15 K) was 0.00389 and the solubility (mole fraction) (in n-butyl acetate, 283.15 K) was 0.000224. The solubility (mole fraction) (in n-butyl acetate, 293.15 K) was 0.000284, the solubility (mole fraction) (in n-butyl acetate, 303.15 K) was 0.000378 and the solubility (mole fraction) (in n-butyl acetate, 313.15 K) was 0.000492. The solubility (mole fraction) (in n-butyl acetate, 323.15 K) was 0.000613, the solubility (mole fraction) (in n-butyl acetate, 333.15 K) was 0.000765 and the solubility (mole fraction) (in n-hexanol, 283.15 K) was 0.0156. It also gave a solubility (mole fraction) (in n-hexanol, 293.15 K) of 0.0166, a solubility (mole fraction) (in n-hexanol, 303.15 K) of 0.0182 and a solubility (mole fraction) (in n-hexanol, 313.15 K) of 0.0202. The solubility (mole fraction) (in n-hexanol, 323.15 K) was 0.0223, the solubility (mole fraction) (in n-hexanol, 333.15 K) was 0.0236 and the solubility (mole fraction) (in n-octanol, 283.15 K) was 0.0154. For the same molecule, the solubility (mole fraction) (in n-octanol, 293.15 K) was 0.0171, the solubility (mole fraction) (in n-octanol, 303.15 K) was 0.0183 and the solubility (mole fraction) (in n-octanol, 313.15 K) was 0.0201. It also gave a solubility (mole fraction) (in n-octanol, 323.15 K) of 0.0222 and a solubility (mole fraction) (in n-octanol, 333.15 K) of 0.0242.

Reference: BigSolDB 2.1
